Data taken from US7309701B2, “Pyridazinone derivatives as pharmaceuticals and pharmaceutical compositions containing them” (Sanofi-Aventis Deutschland GmbH, priority 2002, dated 2007).

Columns and labels:
[1] = test system: Tau protein; experiment: Tau-phosphorylation: inhibition of phosphorylation of the Tau protein in adult rat cortex sections; format: cell-based; conditions: inhibition of Tau phosphorylation (Ser396/404, antibody AD2), 2 h incubation at 37° C.
Procedure: The compounds' activities were determined by measuring the inhibition of phosphorylation of the Tau protein in adult rat cortex sections. The cortex sections having a thickness of 300 μm were prepared from 8-10-week old male OFA rats (Iffa-Credo), sacrificed by decapitation. They were incubated in 5 ml of DMEM medium containing pyruvate and glucose 4.5 g/l at 37° C. for 40 min. The sections were then washed twice with the medium, distributed into microtubes (50 μl in 500 μl of medium with or without test compounds), and incubated at 37° C., with stirring. Two hours later, the experiment was stopped by centrifugation. The sections were washed, sonicated and centrifuged at 18300 g, for 15 min at 4° C. The concentration of proteins in supernatant was determined by a commercial assay (BCA Protein Assay, Pierce) based on the Lowry method. The samples, denatured beforehand for 10 min at 70° C., were separated on a 4-12% Bis-Tris vertical gel in the presence of MOPS-SDS buffer and electrotransferred onto nitrocellulose membrane. Immunolabeling was performed with their monoclonal antibody AD2 which specifically recognizes the phosphorylated epitopes Ser396/404 of the Tau protein. The immunoactive proteins were visualized by adding a second antibody directed against the mouse IgG's and coupled to peroxidase and a chemiluminescent substrate. The autoradiograms obtained were finally quantified using the ‘GeneTools’ software from Syngene (GeneGnome, Ozyme) in order to determine an IC50.

[2] = molecular target: human recombinant GSK-3β (Homo sapiens, UniProt P49841); experiment: GSK-3β activity, AlphaScreen with primed glycogen synthase substrate peptide; format: biochemical; conditions: human recombinant GSK-3β, 10 μM ATP, 60 min at room temperature, AlphaScreen; read-out: IC50
Sequence of human recombinant GSK-3β (P49841 whole entry): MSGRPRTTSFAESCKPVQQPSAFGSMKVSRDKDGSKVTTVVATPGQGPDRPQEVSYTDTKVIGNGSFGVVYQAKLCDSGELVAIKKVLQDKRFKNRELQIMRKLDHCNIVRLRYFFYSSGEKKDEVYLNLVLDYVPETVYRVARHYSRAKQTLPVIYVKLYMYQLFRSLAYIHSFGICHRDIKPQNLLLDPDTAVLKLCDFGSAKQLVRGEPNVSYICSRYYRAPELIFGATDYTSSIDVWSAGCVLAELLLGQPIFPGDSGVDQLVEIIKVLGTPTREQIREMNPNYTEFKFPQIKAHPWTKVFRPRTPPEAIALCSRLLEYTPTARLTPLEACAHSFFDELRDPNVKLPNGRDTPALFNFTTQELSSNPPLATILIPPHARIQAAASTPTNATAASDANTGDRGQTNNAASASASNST
Procedure: GSK-β activity was measured using human recombinant GSK-3β and a primed (pre-phosphorylated) substrate peptide (derived from glycogen synthase and containing the phosphorylation sites 3a, b, and c) on basis of the AlphaScreen technology in 384-well plate format (small volume plate, white, GREINER).

| Structure (SMILES) | IC50 [1] [µM] | melting point [°C] | IC50 [2] [µM] |
| --- | --- | --- | --- |
| O=C(NCc1ccc(Cl)c(Cl)c1)c1cc(-c2ccncc2)n[nH]c1=O [Example 16, N-(3,4-dichlorobenzyl)-3-oxo-6-pyridin-4-yl-2,3-dihydropyridazine-4-carboxamide] | 3.5 | 265 |  |
| O=C(NCc1ccc(C(F)(F)F)cc1)c1cc(-c2ccncc2)n[nH]c1=O [Example 10, 3-oxo-6-pyridin-4-yl-N-[4-(trifluoromethyl)benzyl]-2,3-dihydropyridazine-4-carboxamide] | 9.5 | 227 |  |
| O=C(NCc1ccc(Cl)cc1)c1cc(-c2cccc(O)c2)n[nH]c1=O [Example 53] | 19 |  | 4.4 |
| O=C(NCc1ccc(Cl)cc1Cl)c1cc(-c2ccncc2)n[nH]c1=O [Example 2, N-(2,4-dichlorobenzyl)-3-oxo-6-pyridin-4-yl-2,3-dihydropyridazine-4-carboxamide] | 22 | 233 | 0.72 |
| O=C(NCc1ccncc1)c1cc(-c2ccncc2)n[nH]c1=O [Example 8, 3-oxo-6-pyridin-4-yl-N-(pyridin-4-ylmethyl)-2,3-dihydropyridazine-4-carboxamide] | 9 | 254 |  |
| O=C(NCc1ccccc1)c1cc(-c2ccc(O)cc2)n[nH]c1=O [Example 19, N-benzyl-3-oxo-6-[4-(hydroxy)phenyl]-2,3-dihydropyridazine-4-carboxamide] | 4.1 |  |  |
| O=C(NCCCc1ccccc1)c1cc(-c2ccncc2)n[nH]c1=O [Example 66, 3-Oxo-6-pyridin-4-yl-2,3-dihydro-pyridazine-4-carboxylic acid (3-phenyl-propyl)-amide; compoundwith trifluoro-aceticacid] | 1.1 |  | 0.095 |
| O=C(NCc1ccc(Cl)cc1)c1cc(-c2ccncc2)n[nH]c1=O [Example 4, N-(4-chlorobenzyl)-3-oxo-6-pyridin-4-yl-2,3-dihydropyridazine-4-carboxamide] | 13 | 250 | 0.18 |
| Cc1cc(-c2cc(C(=O)NCc3ccc(Cl)cc3)c(=O)[nH]n2)cc(C)c1O [Example 52, 6-(4-Hydroxy-3,5-dimethyl-phenyl)-3-oxo-2,3-dihydro-pyridazine-4-carboxylic acid 4-chloro-benzylamide] | 19 |  | > 10 |
| CNc1nccc(-c2cc(C(=O)NCc3ccc(Cl)cc3)c(=O)[nH]n2)n1 [Example 34, 6-(2-Methylamino-pyrimidin-4-yl)-3-oxo-2,3-dihydro-pyridazine-4-carboxylic acid 4-chloro-benzylamide] | 0.24 |  |  |
| O=C(NCc1ccc(Cl)cc1)c1cc(-c2ccc(O)cc2)n[nH]c1=O [Example 40, 6-(4-Hydroxy-phenyl)-3-oxo-2,3-dihydro-pyridazine-4-carboxylic acid 4-chloro-benzylamide] | 0.3 |  | 2.8 |
